Experimental data from patent US20250276972A1, “COMPOUNDS AS CASEIN KINASE INHIBITORS” (GRITSCIENCE BIOPHARMACEUTICALS CO.,LTD., priority 2020, published 2025).
pEC50, pIC50: −log10 of the molar value.

How the values were obtained:
wild type CK1δ = wild type CK1δ (Homo sapiens, UniProt P48730); experiment: CK1δ kinase assay (Kinase-Glo); type: biochemical; conditions: 10 μM ATP, 2 nM wild type CK1δ, 85 min at 25° C.
Protocol: The reaction mixture was incubated for 85 min at 25° C.; detection was carried out as described for the Kinase-Glo Assay (Promega). Luminescent output was measured on the Perkin Elmer Envision plate reader (PerkinElmer, Waltham, MA).

CK1δ = molecular target: T1, CK1δ (Homo sapiens, UniProt P48730); experiment: CK1δ inhibition (EC50); Bmal1-dLuc or Per2-dLuc U2OS luminescence rhythm period assay; type: cell-based; conditions: Table 3
T1 construct: endogenous in cells; host or cells: Bmal1-dLuc or Per2-dLuc U2OS cells
Protocol: Bmall-dLuc or Per2-dLuc U2OS cells were suspended in the culture medium (DMEM supplemented with 10% fetal bovine serum, 0.29 mg/mL L-glutamine, 100 units/mL penicillin, and […] streptomycin) and plated onto 96-well white solid-bottom plates at 200 μL (10,000 cells) per well. After 2 days, 100 μL of the explant medium (DMEM supplemented with 2% B27, 10 mM HEPES, 0.38 mg/mL sodium bicarbonate, 0.29 mg/mL L-glutamine, 100 units/mL penicillin, […], 0.1 mg/mL gentamicin, and 1 mM luciferin, pH 7.2) was dispensed to each well, followed by the application of 1 μL of a compound of the present application (dissolved in DMSO; final concentration was 0.7% in DMSO). The plate was covered with an optically clear film and set to microplate reader (Infinite M200, Tecan).

[1] = Intrinsic clearance in liver microsomes (human); type: in vitro ADME; conditions: Human liver microsomes 0.5 mg/mL, 2 μM compound, 37° C.; for microsomal CLint at 2 μM: read-out: in vitro CLint (μL/min/mg protein); for half-life at 2 μM: read-out: in vitro t1/2
Protocol: (§1) • 1. The master solution was prepared according to Table 5.
(§2) • 2. Three separated experiments were performed as follows. a) With NADPH: 10 μL of 20 mg/mL liver microsomes and 40 μL of 10 mM NADPH were added to the incubations. The final concentrations of microsomes and NADPH were 0.5 mg/mL and 1 mM, respectively. b) Without NADPH: 10 μL of 20 mg/mL liver microsomes and 40 μL of ultra-pure H2O were added to the incubations. The final concentration of microsomes was 0.5 mg/mL. c) Heat-inactivated microsomes without NADPH: 10 μL of 20 mg/mL heat-inactivated liver microsomes and 40 μL of ultra-pure H2O were added to the incubations. The final concentration of microsomes was 0.5 mg/mL. • 3. The reaction was started with the addition of 4 μL of 200 μM test compound solution or control compound solution at the final concentration of 2 μM and carried out at 37° C. • 4. Aliquots of 50 μL were taken from the reaction solution at 0, 15, 30, 45 and 60 min. […] Samples were centrifuged at 3, 220 g for 40 minutes. […] Data Analysis
(§3) Peak areas were determined from extracted ion chromatograms. The slope value, k, was determined by linear regression of the natural logarithm of the remaining percentage of the parent drug vs. incubation time curve.
(§4) The in vitro half-life (in vitro t1/2) was determined from the slope value:
(§5) Conversion of the in vitro t1/2 (min) into the in vitro intrinsic clearance (in vitro CLint, in μL/min/mg protein) was done using the following equation (mean of duplicate determinations): […]

[2] = Intrinsic clearance in liver microsomes (mouse); type: in vitro ADME; conditions: Mouse liver microsomes 0.5 mg/mL, 2 μM compound, 37° C.; for microsomal CLint at 2 μM: read-out: in vitro CLint (μL/min/mg protein); for half-life at 2 μM: read-out: in vitro t1/2
Protocol: as §1, §2, §3, §4, §5

in vitro = conditions: human, Caco-2, pH 7.4
Protocol: Cells were cultivated for 14-18 days in a cell culture incubator at 37° C., 5% CO2, 95% relative humidity. Cell culture medium was replaced every other day, beginning no later than 24 hours after initial plating.
10 mM stock solutions of test compounds were prepared in DMSO. The stock solutions of positive controls were prepared in DMSO at the concentration of 10 mM.
125 μL of 5 μM working solution of control compound and test compounds were added to the Transwell insert (apical compartment), and transfer 50 μL sample (DO sample) immediately from the apical compartment to a new 96-well plate. […] 285 μL of 5 μM working solution of control compound and test compounds were to the receiver plate wells (basolateral compartment), and transfer 50 μL sample (DO sample) immediately from the basolateral compartment to a new 96-well plate. Fill the wells in the Transwell insert (apical compartment) with 75 μL of HBSS (10 mM HEPES, pH 7.4). […] Samples were Vortexed for 5 minutes and then centrifuged at 3,220 g for 40 minutes. […] 100 μL of the Lucifer yellow solution was added to each Transwell insert (apical compartment), followed by filling the wells in the receiver plate (basolateral compartment) with 300 μL of HBSS (10 mM HEPES, pH 7.4). The plates were Incubated at 37° C. for 30 mins. 80 μL samples were removed directly from the apical and basolateral wells (using the basolateral access holes) and transferred to wells of new 96 wells plates. The Lucifer Yellow fluorescence (to monitor monolayer integrity) signal was measured in a fluorescence plate reader at 485 nm excitation and 530 nm emission.
The apparent permeability coefficient (Papp), in units of centimeter per second, can be calculated for Caco-2 drug transport assays using the following equation: […]

wild type CK1δ, sequence (P48730 whole entry): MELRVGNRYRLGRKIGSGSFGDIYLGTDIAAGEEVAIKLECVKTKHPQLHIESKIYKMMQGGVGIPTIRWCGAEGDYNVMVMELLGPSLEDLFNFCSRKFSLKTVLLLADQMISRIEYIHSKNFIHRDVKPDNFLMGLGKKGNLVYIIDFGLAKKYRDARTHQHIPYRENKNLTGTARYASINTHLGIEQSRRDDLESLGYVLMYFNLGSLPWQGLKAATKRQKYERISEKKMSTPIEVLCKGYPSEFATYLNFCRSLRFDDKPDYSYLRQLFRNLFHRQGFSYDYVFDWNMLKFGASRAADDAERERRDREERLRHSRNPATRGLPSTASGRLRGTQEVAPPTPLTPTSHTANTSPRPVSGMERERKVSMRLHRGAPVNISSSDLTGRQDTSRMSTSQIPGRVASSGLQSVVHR
T1 sequence (P48730 whole entry): as above

A pIC50 (wild type CK1δ) of 7.43 and a pEC50 (CK1δ) of 6.52 were found for `COc1ccc(/C=C/C(=O)Nc2cc(-c3c(-c4ccc(F)cc4)nn4c3CN(C(C)=O)CC4)ccn2)c(OC)c1` [Compound I-69, (E)-N-(4-(5-acetyl-2-(4-fluorophonyl)-4,5,6,7-tetrahydropyrazolo[1,5-a]pyrazin-3-yl)pyridin-2-yl)-3-(2,4-dimethoxyphenyl) acrylamide] in this work.

A pIC50 (wild type CK1δ) of 5.99 and a pEC50 (CK1δ) of 5.13 were found for `Cc1cc(-c2c(-c3ccc(F)cc3)nn3c2CN(C(=O)CCN(C)C)CC3)ccn1` [Compound I-6, 3-(dimethylamino)-1-(2-(4-fluorophenyl)-3-(2-methylpyridin-4-yl)-6,7-dihydropyrazolo[1,5-a]pyrazin-5(4H)-yl)propan-1-one] in this work.

A pIC50 (wild type CK1δ) of 4.54 was found for `CC(=O)N1CCn2nc(-c3ccc(F)cc3)c(-c3cc(N)ncn3)c2C1` [Compound I-63, 1-(3-(6-aminopyrimidin-4-yl)-2-(4-fluorophenyl)-6,7-dihydropyrazolo[1,5-a]pyrazin-5(4H)-yl)ethan-1-one] in this work.

A pIC50 (wild type CK1δ) of 6.48 and a pEC50 (CK1δ) of 6.15 were found for `Nc1cc(-c2nn3c(c2-c2ccc(F)cc2)C(=O)NCC3)ccn1` [Compound I-64, 2-(2-aminopyridin-4-yl)-3-(4-fluorophenyl)-6,7-dihydropyrazolo[1,5-a]pyrazin-4(5H)-one] in this work.

A pIC50 (wild type CK1δ) of 5.77 and a pEC50 (CK1δ) of 5.28 were found for `Cc1cc(-c2c(-c3ccc(F)cc3)nn3c2CN(C(=O)C(F)(F)F)CC3)ccn1` [Compound I-16, 2,2,2-trifluoro-1-(2-(4-fluorophenyl)-3-(2-methylpyridin-4-yl)-6,7-dihydropyrazolo [1,5-a]pyrazin-5(4H)-yl)ethan-1-one] in this work.

A pIC50 (wild type CK1δ) of 5.75 was found for `[2H]C([2H])([2H])c1cc(-c2c(-c3ccc(F)cc3)nn3c2CN(C(=O)CCN(C)C)CC3)ccn1` [Compound I-134, 3-(dimethylamino)-1-(2-(4-fluorophenyl)-3-(2-(methyl-d3)pyridin-4-yl)-6,7-dihydropyrazolo[1,5-a]pyrazin-5(4H)-yl)propan-1-one] in this work.

A pIC50 (wild type CK1δ) of 6.44 and a pEC50 (CK1δ) of 6.40 were found for `CS(=O)(=O)N1CCn2nc(-c3ccc(F)cc3)c(-c3ccnc(N)n3)c2C1` [Compound I-21, 4-(2-(4-fluorophenyl)-5-(methylsulfonyl)-4,5,6,7-tetrahydropyrazolo[1,5-a]pyrazin-3-yl)pyrimidin-2-amine.] in this work.

A pEC50 (CK1δ) of 5.35, a microsomal CLint at 2 μM [1] of 3.74 µL/min/mg and a half-life at 2 μM [1] of 370 min were found for `CC(=O)N1CCn2nc(-c3ccc(F)cc3)c(-c3ccnc(NCC(F)(F)F)c3)c2C1` [Compound I-96, 1-(2-(4-fluorophenyl)-3-(2-((2,2,2-trifluoroethyl)amino)pyridin-4-yl)-6,7-dihydropyrazolo [1,5-a]pyrazin-5(4H)-yl)ethan-1-one] in this work. It also gave a microsomal CLint at 2 μM [2] of 10 µL/min/mg and a half-life at 2 μM [2] of 138 min.

A pEC50 (CK1δ) of 5.70, a microsomal CLint at 2 μM [1] of 25.2 µL/min/mg and a half-life at 2 μM [1] of 55 min were found for `CC(=O)N1CCn2nc(-c3ccc(F)cc3)c(-c3ccnc(NC(=O)C4(c5ccc(F)cc5)CC4)c3)c2C1` [Compound I-77, N-(4-(5-acetyl-2-(4-fluorophenyl)-4,5,6,7-tetrahydropyrazolo[1,5-a]pyrazin-3-yl)pyridin-2-yl)-1-(4-fluorophenyl)cyclopropane-1-carboxamide] in this work. It also gave a microsomal CLint at 2 μM [2] of 152 µL/min/mg and a half-life at 2 μM [2] of 9.14 min.

A pEC50 (CK1δ) of 6.15, a microsomal CLint at 2 μM [1] of 52.5 µL/min/mg and a half-life at 2 μM [1] of 26.4 min were found for `COCCN1CCn2nc(-c3ccc(F)cc3)c(-c3ccnc(NC(C)=O)c3)c2C1` [Compound I-40, N-(4-(2-(4-fluorophenyl)-5-(2-methoxyethyl)-4,5,6.7-tetrahydropyrazolo[1,5-a]pyrazin-3-yl)pyridin-2-yl)acetamide] in this work. The microsomal CLint at 2 μM [2] was 532 µL/min/mg and the half-life at 2 μM [2] was 2.61 min.

A pEC50 (CK1δ) of 6.70, a Papp A→B at 2 h, 5 μM (in vitro) of 0.88 ×10⁻⁶ cm/s and a Papp B→A at 2 h, 5 μM (in vitro) of 22.4 ×10⁻⁶ cm/s were found for `CC(=O)Nc1cc(-c2c(-c3ccc(F)cc3)nn3c2CN(CCN(C)C)CC3)ccn1` [Compound I-50, N-(4-(5-(2-(dimethylamino)ethyl)-2-(4-fluorophenyl)-4,5,6,7-tetrahydropyrazolo [1,5-a]pyrazin-3-yl)pyridin-2-yl)acetamide] in this work. For the same compound, the efflux ratio at 2 h, 5 μM (in vitro) was 25.4, the microsomal CLint at 2 μM [1] was 13.5 µL/min/mg and the half-life at 2 μM [1] was 102 min. For the same compound, the microsomal CLint at 2 μM [2] was 35.1 µL/min/mg and the half-life at 2 μM [2] was 39.5 min.

A pEC50 (CK1δ) of 7.00, a microsomal CLint at 2 μM [1] of 16.5 µL/min/mg and a half-life at 2 μM [1] of 84.1 min were found for `CC(=O)N1CCn2nc(-c3ccc(F)cc3)c(-c3ccnc(NC(=O)C(C)c4ccc(F)cc4)c3)c2C1` (stereo not drawn) [Compound I-82, N-(4-(5-acetyl-2-(4-fluorophenyl)-4,5,6,7-tetrahydropyrazolo[1,5-a]pyrazin-3-yl)pyridin-2-yl)-2-(4-fluorophenyl)propanamide] in this work. For the same compound, the microsomal CLint at 2 μM [2] was 453 µL/min/mg and the half-life at 2 μM [2] was 3.06 min.

A pEC50 (CK1δ) of 6.15, a microsomal CLint at 2 μM [1] of 94.3 µL/min/mg and a half-life at 2 μM [1] of 14.7 min were found for `CN1CCn2nc(-c3ccc(F)cc3)c(-c3ccnc(NC(=O)C4CC4)c3)c2C1` [Compound I-89, N-(4-(2-(4-fluorophenyl)-5-methyl-4,5,6,7-tetrahydropyrazolo[1,5-a]pyrazin-3-yl)pyridin-2-yl)cyclopropanecarboxamide] in this work. The microsomal CLint at 2 μM [2] was 665 µL/min/mg and the half-life at 2 μM [2] was 2.09 min.
